In brackets after ≈: the same amount, converted by molar mass.
Experiments:
Assay type in all cases: physicochemical
[1] = Saturation solubility of compound 1 in various buffer media; details: aqueous buffer, thermodynamic from solid
Source text: (§1) However, there are limits to increasing the pH due to the use as infusion. Values of pH above pH 9.0 are borderline in relation to physiological tolerability.

[2] = Dilution experiments on 0.05 mg/ml solutions with and without trometamol (Table 2); details: for Appearance of the solution: 0.05 mg/ml solution with trometamol 0.01 molar, pH before dilution 8.74
Method: Dilution experiments on solutions with an active ingredient content of 0.05 mg/ml have shown that these can be diluted in a pH-stable and thus problem-free manner over a wide range only if they are buffered with a sufficient quantity of trometamol.
Without use of trometamol and on use of trometamol in a concentration of only 0.001 M, the pH falls greatly even with slight dilution (1+5). There is a high risk in this case that the active ingredient will precipitate on dilution with other infusion solutions (Table 2 a-c).

[3] = pKa of the ionizable groups of compound 1
Source text: as §1

[4] = Dilution of 0.05 mg/ml compound 1 / 0.01 M trometamol solutions with standard infusion solutions (Table 3); details: trometamol 0.01 M
Method: Solutions comprising compound 1 in a concentration of 0.05 mg/ml and trometamol in a concentration of 0.01 M can be diluted problem-free with standard infusion solutions over a wide range. The dilution experiments shown in Table 3 were carried out concerning this:
All the dilution experiments were carried out in duplicate. […] It emerged that there is a marked decrease in the pH values to the region below 8.0 only with dilutions greater than 1:40. Precipitation of the active ingredient is no longer a worry with such great dilutions, because the solubility limit of compound 1 is no longer reached owing to the large amount of dilution medium.

[5] = Titration experiments with 0.01 N hydrochloric acid (acid burden, precipitation)
Method: It was possible to show in titration experiments that an acid burden of 0.01 N hydrochloric acid in solutions without trometamol leads to such a large fall in pH even on addition of less than 1 ml to the total content of a 50 ml infusion bottle that the active ingredient precipitates. On addition of 0.001 M trometamol buffer, precipitations are to be observed on addition of about 5 ml of 0.01 N hydrochloric acid. A solution with a trometamol content of 0.01 M is by contrast stable to precipitations on addition of acid up to more than 35 ml of 0.01 N hydrochloric acid.

For O=C(O)CCCCN(CCc1ccccc1OCc1ccc(CCc2ccccc2)cc1)Cc1ccc(C(=O)O)cc1 [compound 1, 4-[((4-Carboxybutyl)-{2-[(4-phenethylbenzyl)oxy]phenethyl}amino)methyl]benzoic acid], the solubility ([1]; Ammonium chloride buffer solution, actual pH 9.5) was 75.7 mg/mL (≈ 134000 µM), the solubility ([1]; Citric acid-phosphate buffer, actual pH 7.4) was 0.0131 mg/mL (≈ 23.2 µM) and the solubility ([1]; Citric acid-phosphate buffer, actual pH 8.0) was 0.0642 mg/mL (≈ 113 µM). It also gave a solubility ([1]; Diethanolamine buffer solution, actual pH 10.0) of 89.8 mg/mL (≈ 159000 µM), a solubility ([1]; HEPES buffer solution, actual pH 7.5) of 0.0358 mg/mL (≈ 63.3 µM) and a solubility ([1]; Phosphate buffer solution (0.2 M), actual pH 7.5) of 0.0158 mg/mL (≈ 27.9 µM). The solubility ([1]; Phosphate buffer solution (0.3 M), actual pH 7.5) was 0.0013 mg/mL (≈ 2.3 µM), the solubility ([1]; Phosphate buffer solution, actual pH 6.0) was 0.0002 mg/mL (≈ 0.354 µM) and the solubility ([1]; Phosphate buffer solution, actual pH 7.2) was 0.0084 mg/mL (≈ 14.8 µM). It also gave a solubility ([1]; Phosphate buffer solution, actual pH 7.4) of 0.0215 mg/mL (≈ 38 µM), a solubility ([1]; Phosphate buffer solution, actual pH 8.0) of 0.0032 mg/mL (≈ 5.66 µM) and a solubility ([1]; Phosphate buffer solution, actual pH 9.0) of 0.683 mg/mL (≈ 1210 µM). It also gave a solubility ([1]; Saline-phosphate buffer, actual pH 7.4) of 0.019 mg/mL (≈ 33.6 µM), a solubility ([1]; Sodium citrate buffer solution, actual pH 7.8) of 0.16 mg/mL (≈ 283 µM) and a solubility ([1]; Tetrabutylammonium buffer solution, actual pH 7.0) of 0.0128 mg/mL (≈ 22.6 µM). The pH after dilution ([2]; 0.05 mg/ml solution with trometamol 0.001 molar, mixing ratio 1 + 5, NaCl soln, final volume 251 ml, pH before dilution 8.69) was 8.43, the pH after dilution ([2]; 0.05 mg/ml solution with trometamol 0.001 molar, mixing ratio 1 + 10, NaCl soln, final volume 275 ml, pH before dilution 8.69) was 8.05 and the pH after dilution ([2]; 0.05 mg/ml solution with trometamol 0.001 molar, mixing ratio 1 + 250, NaCl soln, final volume 300 ml, pH before dilution 8.69) was 6.61. For the same compound, the “Appearance of the solution” value ([2]; mixing ratio 1 + 5, NaCl soln, final volume 251 ml) was “clear”, the “Appearance of the solution” value ([2]; mixing ratio 1 + 10, NaCl soln, final volume 275 ml) was “clear” and the “Appearance of the solution” value ([2]; mixing ratio 1 + 250, NaCl soln, final volume 300 ml) was “clear”. The pH after dilution ([2]; 0.05 mg/ml solution without trometamol, mixing ratio 1 + 5, NaCl soln, final volume 251 ml, pH before dilution 8.51) was 6.40, the pH after dilution ([2]; 0.05 mg/ml solution without trometamol, mixing ratio 1 + 10, NaCl soln, final volume 275 ml, pH before dilution 8.51) was 6.58 and the pH after dilution ([2]; 0.05 mg/ml solution without trometamol, mixing ratio 1 + 250, NaCl soln, final volume 300 ml, pH before dilution 8.51) was 6.70. The pKa1 [3] was 4.0, the pKa2 [3] was 4.7 and the pKa3 [3] was 8.3. For the same compound, the Precipitation on dilution ([4]; all dilutions of Table 3, in duplicate) was “No precipitations occurred”, the pH after dilution ([4]; mixing ratio 1:2, NaCl soln, final volume 10 ml) was 8.67 and the pH after dilution ([4]; mixing ratio 1:4, NaCl soln, final volume 20 ml) was 8.65. The pH after dilution ([4]; mixing ratio 1:10, Glucose soln, final volume 50 ml) was 8.37, the pH after dilution ([4]; mixing ratio 1:10, NaCl soln, final volume 50 ml) was 8.57 and the pH after dilution ([4]; mixing ratio 1:10, Placebo soln, final volume 50 ml) was 8.72. It also gave a pH after dilution ([4]; mixing ratio 1:10, Water, final volume 50 ml) of 8.61, a pH after dilution ([4]; mixing ratio 1:20, NaCl soln, final volume 100 ml) of 8.54 and a pH after dilution ([4]; mixing ratio 1:40, NaCl soln, final volume 200 ml) of 8.40. The pH after dilution ([4]; mixing ratio 1:200, NaCl soln, final volume 1000 ml) was 7.85, the “Volume of 0.01 N hydrochloric acid at which precipitations are observed” value ([5]; solution with 0.001 M trometamol buffer, 50 ml infusion bottle) was “about 5 ml” and the “Volume of 0.01 N hydrochloric acid up to which the solution is stable to precipitations” value ([5]; solution with trometamol content of 0.01 M, 50 ml infusion bottle) was “more than 35 ml”. For the same compound, the “Volume of 0.01 N hydrochloric acid at which the active ingredient precipitates” value ([5]; solution without trometamol, added to total content of a 50 ml infusion bottle) was “less than 1 ml”.
